We go through one substance from US20100248229A1, “INVITRO HUMAN EMBRYONIC MODEL AND A METHOD THEREOF” (Stempeutics Research Private Limited, priority 2007, published 2010).

“Also recorded” adds a separate entry of the source.

Common to all, as to assay type: cell-based, human
One data set concerns hESCs (EB formation). In words: Effect on the formation of EBs from hESCs. The settings on record: 10 pg/ml and above. As for the experimental part:
Human Embryonic Stem Cells (hESCs) cultured on feeder cells of mouse or human origin, or cultured in feeder free conditions were exposed to several different dilutions of the drug for 6 days and subjected to Embryoid Body (EB) formation on non adherent plates, in presence of the drug for another 4 days. The control set was free from any extraneous addition of drugs. The formation of normal EBs in the control was evaluated by testing the expression of all the germ lineage, pluripotency and epigenomic markers as given in table Nos. 1-7 by RT-PCR, Flow Cytometry and Immunofluorescence. Alteration in the expression profiles of these genes in the treated EBs indicated a detrimental effect on embryonic development. A failure to form nicely cavitating EBs, as observed under the microscope, or a delay in the formation of the EBs as compared to the control indicated a possible embryo toxic effect of the drug.
The effect of molecules/compounds was screened. The compound, such as Rho Kinases inhibitor Y27632, 5-Azacytidine, and gram negative bacterial endotoxin lipopolysaccharide (LPS) on the formation of EBs from hESCs were screened for their toxic activity. LPS is known to be involved in genital tract infection related pathogenesis and pregnancy losses.

Data set [1] deals with EBs derived from hESC line HUES9. As to the kind of experiment: RT-PCR of germ lineage markers and HMGB1 in LPS-exposed HUES9 EBs. From the text: EBs derived from the human embryonic stem cell (hESC) line HUES9 were exposed to 12.5 pg/ml of LPS for 48 hrs. The expression profile of the ectoderm, endoderm, mesoderm and trophectoderm lineage markers like βIII-tubulin, GATA4, BMP2, Brachury and β-hCG were studied, by RT-PCR and Immunofluorescence. Inhibition of mesoderm induction was confirmed by RT-PCR analysis for hANP, cTnT, ABCG2, GATA2, BMP4 and HAND1. Osteoblast differentiation was induced in the EBs, and confirmed by von Kosa and Alizarin red staining. A comet assay was also done to assess the degree of apoptosis in these EBs.
(§1) Exposure of EBs to LPS: EBs at day-2.5 were exposed to 12.5 pg/ml of Endotoxin/lipopolysaccharide (LPS) (Sigma) for 48 hrs supplemented in culture medium. The normal and the endotoxin treated EBs were harvested on day 4.5. Post exposure, the control and endotoxin treated EBs were divided in two groups. One group was lysed in TRIZOL for RNA isolation and the other group was fixed in 4% paraformaldehyde for immunofluorescence. The expression profile of the ectoderm, endoderm, mesoderm and trophectoderm lineage markers like PHI-tubulin, GATA4, BMP2, Brachury and β-hCG etc. were studied by RT-PCR and Immunofluorescence. The expression of the LPS-inducible and pluripotency related DNA binding protein HMGB1 was also studied in both the control and treated EBs.
RT-PCR: Total RNA from cells was isolated using TRIZOL-LS Reagent (Invitrogen) as per the manufacturer's protocol. Complementary DNA was synthesized using the SuperScript III First-Strand Synthesis System (Invitrogen) as per the manufacturer's instructions. Polymerase Chain Reaction (PCR) was carried out using 1U Tag DNA Polymerase (Sigma) and MgCl2 to a final concentration of 1.5 mM in a total volume of 25 μl/reaction. β-actin and GAPDH were used as the housekeeping controls. PCR cycles consisted of an initial denaturation at 95° C. for 5 minutes followed by 35 amplification cycles of denaturation at 94° C. for 45 seconds, annealing for 45 seconds, and extension at 72° C. for 45 seconds and final extension at 72° C. for 10 minutes.

The test system is the same in data set [2]. In words: Morphology of EBs under the microscope. As to conditions: 12.5 pg/ml for 48 hrs, day 4.5.
Source text: as §1
The HUES9 cells were harvested on day 5 and used for induction of EBs. The control EBs were collected on day 4.5 of culture (FIG. 4b). The LPS treated EBs were also collected on day 4.5 and were compared with the normal for morphological changes under the microscope (FIG. 4c). […] The normal and LPS treated EBs were screened for pluripotency and the germ lineage markers. […] HMGB1 mRNA expression was not found in the normal EBs (FIG. 5). […] Immunofluorescence localization of HMGB1 and the mesoderm marker Brachury was done to check the protein expressions. […]

Data set [3] shares this test system. As to the kind of experiment: Cell counting: DAPI stained nuclei per EB. As to conditions: 12.5 pg/ml for 48 hrs. As for the experimental part:
Immunofluorescence and Cell counting: HESCs were grown on coverslips coated with MEFs and then fixed with 4% paraformaldehyde and 5% sucrose (Sigma) followed by permeabilization in 0.2% Triton X100 (Sigma). The slides were then incubated with primary antibodies 1:500 dilution of SSEA4 (Chemicon, Calif., USA), 5 ug/ml Nanog (Santa Cruz Biotechnology, CA, USA), 10 μg/ml Brachury (R&D Systems Inc. Minneapolis, USA), and 1.5 μg/ml HMGB1 (Sigma) overnight at 4° C. After washing thrice with PBS, fluorescein isothiocyanate/Texas red-labeled Secondary antibodies against the primary goat/rabbit/mouse were added as 1:500 dilutions and incubated for 2 hours. DAPI (Sigma) was used for nuclear staining and then washed with PBS. The negative controls were done without primary antibodies. Slides were mounted with DABCC (Sigma) and images were acquired using Nikon Eclipse 90i microscope (Nikon Corporation, Japan) and Image-Pro Express software (Media Cybernetics, Inc, Silver Spring, Md.). The results were then compared with the control cells (non-LPS treated EBs). To count the number of cells per EB, the number of DAPI stained nuclei were counted in 10 each of the control and LPS treated EBs.
Cell numbers and DNA fragmentation: For a count of the average number of cells per EB, the DAPI stained nuclei were counted in individual control and LPS treated EBs under epifluorescence. […]

A further data set concerns EBs. As to the kind of experiment: Methylation specific PCR (MSP) and mRNA expression of epigenetically regulated genes in EBs. As to conditions: 48 hrs, 5 ug/ml. The source says:
Methylation status of several of the epigenetically regulated genes and the imprinted genes in response to exposure to various compounds/drugs or biologicals were screened.

The mark [4] stands for this setting: 12.5 pg/ml for 48 hrs, EBs harvested day 4.5.

For the substance lipopolysaccharide [LPS], the “EB formation from hESCs” value with hESCs (EB formation) was “complete inhibition of EB formation”. For the same substance, the “expression of mesoderm markers (Brachury, BMP2, hANP, cTnT, ABCG2, GATA2, BMP4, HAND1)” value in data set [1] (12.5 pg/ml for 48 hrs) is “no expression; also recorded: selectively silenced; also recorded: specific silencing”. Moreover, in data set [1] (setting [4]), the “mRNA expression of HMGB1, βIII-tubulin, GATA4 and β-hCG” value is “positive mRNA expression”; the “mRNA expression of mesoderm markers BMP4, GATA2, ABCG2, cTnT, hANP and HAND1” value is “absence of mRNA expressions”; the “mRNA expression of mesoderm markers Brachury and BMP2” value is on record as “no mRNA expressions”. In addition, in data set [1] (12.5 pg/ml for 48 hrs, not expressed in normal EBs), the “HMGB1 expression in EBs” value is on record as “positive or induced expression; also recorded: induced”. Besides, the “functional mesoderm formation in EBs” value in data set [1] (exposure for 48 hrs) is listed as “inhibited”. For the same substance, in data set [2], the “morphology (shape, size or numbers) of treated vs normal EBs” value is reported as “did not show any visible morphological differences”. Also, in data set [3], the “average number of cells per EB, treated vs control” value was “not significantly different”. Besides, the “average number of cells/EB (mean±SD)” value in data set [3] (control 142.33±48.41) stood at 175±75.47 cells/EB. The “mRNA expression of SDHD, DYPS and CDH1” value in the data set with EBs (control EBs positive) is “negative mRNA expression/silencing”. In addition, the “methylation status of SDHD, DYPS and CDH1 (MSP after bisulphite treatment)” value with EBs (control: one of the alleles methylated) was “both the alleles of these genes were methylated”.
